28 compounds from patent publication US11332459B2 (TEIJIN PHARMA LIMITED, priority 2017, dated 2022) can be followed below.

pIC50: −log10 of the molar value. Counter-ions that a name gives are not always drawn.

The target of this experiment is T1, human TRPC6 (Homo sapiens, UniProt Q9Y210).
T1 construct: expressed in transfected cells
T1 sequence (Q9Y210 1-931): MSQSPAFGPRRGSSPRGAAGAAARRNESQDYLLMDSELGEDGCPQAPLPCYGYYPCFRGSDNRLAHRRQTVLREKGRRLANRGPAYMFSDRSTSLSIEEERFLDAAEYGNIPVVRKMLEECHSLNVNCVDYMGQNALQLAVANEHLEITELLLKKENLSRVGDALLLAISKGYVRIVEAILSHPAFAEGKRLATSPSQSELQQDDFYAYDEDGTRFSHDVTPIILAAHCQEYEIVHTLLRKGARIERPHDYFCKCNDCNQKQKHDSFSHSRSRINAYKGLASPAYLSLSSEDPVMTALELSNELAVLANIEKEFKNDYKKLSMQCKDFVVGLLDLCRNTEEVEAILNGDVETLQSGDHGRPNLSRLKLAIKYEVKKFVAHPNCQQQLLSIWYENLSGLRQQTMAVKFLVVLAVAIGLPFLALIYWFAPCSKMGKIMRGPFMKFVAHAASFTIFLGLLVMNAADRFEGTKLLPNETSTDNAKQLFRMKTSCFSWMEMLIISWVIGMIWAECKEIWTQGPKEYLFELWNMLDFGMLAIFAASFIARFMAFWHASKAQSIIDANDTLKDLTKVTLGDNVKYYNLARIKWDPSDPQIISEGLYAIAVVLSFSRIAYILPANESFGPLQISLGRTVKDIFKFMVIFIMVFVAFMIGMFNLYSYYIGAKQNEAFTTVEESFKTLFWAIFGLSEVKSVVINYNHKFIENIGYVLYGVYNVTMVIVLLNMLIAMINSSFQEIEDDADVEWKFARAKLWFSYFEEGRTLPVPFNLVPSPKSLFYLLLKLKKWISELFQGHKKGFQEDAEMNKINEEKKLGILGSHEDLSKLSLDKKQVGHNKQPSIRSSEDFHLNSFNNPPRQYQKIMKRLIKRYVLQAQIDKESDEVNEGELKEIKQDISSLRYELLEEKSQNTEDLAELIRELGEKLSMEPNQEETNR
Kind of experiment: TRPC6 calcium flux assay (FLIPR, OAG-stimulated calcium influx). It counts as cell-based. The settings on record: HEK293 cells stably transfected with human TRPC6, read-out: hTRPC6 Potency. The gist of the method: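 IC50 derived by plotting background-corrected peak fluorescence (180 s window, normalized to OAG-triggered signal vs buffer) against dose. Stable human TRPC6 HEK293 line was dye-loaded, exposed to compound 25 min, then challenged with 50 uM final OAG in 2 mM Ca2+ HEPES buffer pH 7.2, 0.5% DMSO.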
On to `N[C@@H]1CN(c2nc3cc(F)ccc3n2Cc2ncc(Cl)cn2)CC[C@H]1O` [Example 494, (3R,4R)-3-amino-1-(1-((5-chloropyrimidin-2-yl)methyl)-5-fluoro-1H-benzo[d]imidazol-2-yl)piperidin-4-ol], for which the pIC50 is 7.90.
Consider `CN(C(=O)Cn1c(N2CC[C@@H](F)[C@H](N)C2)nc2cc(F)c(F)cc21)c1nccs1` [Example 501, 2-(2-((3R,4R)-3-amino-4-fluoropiperidin-1-yl)-5,6-difluoro-1H-benzo[d]imidazol-1-yl)-N-methyl-N-(thiazol-2-yl)acetamide], for which the pIC50 is 8.21.
`N#CC1CN(C(=O)Cn2c(N3CC[C@@H](F)[C@H](N)C3)nc3cc(F)c(F)cc32)CCO1` (mixture of isomers) [Example 627, 4-(2-(2-((3R,4R)-3-amino-4-fluoropiperidin-1-yl)-5,6-difluoro-1H-benzo[d]imidazol-1-yl)acetyl)morpholine-2-carbonitrile]: the pIC50 was 6.91.
Turning to `COc1cc(F)cc2nc(N3CC[C@@H](F)[C@H](N)C3)n(Cc3ccc(C#N)cn3)c12` [Example 476], the pIC50 was 6.12.
The result for `COc1ccc2c(c1)nc(N1CC[C@H](F)[C@H](N)C1)n2Cc1ccc(C#N)cn1` [Example 148, 6-((2-((3R,4S)-3-amino-4-fluoropiperidin-1-yl)-5-methoxy-1H-benzo[d]imidazol-1-yl)methyl)nicotinonitrile hydrochloride] reads 7.93; that for `N#Cc1ccc(Cn2c(N3CCC(F)(F)[C@H](N)C3)nc3c(C(F)(F)F)cccc32)nc1` [Example 89, (R)-6-((2-(3-amino-4,4-difluoropiperidin-1-yl)-4-(trifluoromethyl)-1H-benzo[d]imidazol-1-yl)methyl)nicotinonitrile], 6.43.
The result for `N#Cc1ccc(Cn2c(N3CC[C@H](F)[C@@H](N)C3)nc3ccccc32)nc1` [Example 16, 6-((2-((3S,4S)-3-amino-4-fluoropiperidin-1-yl)-1H-benzo[d]imidazol-1-yl)methyl)nicotinonitrile] reads 6.65; that for `COc1ccc2c(c1)nc(N1CCC[C@H](N)C1)n2Cc1ccc(C#N)cn1` [Example 143, (S)-6-((2-(3-aminopiperidin-1-yl)-5-methoxy-1H-benzo[d]imidazol-1-yl)methyl)nicotinonitrile 2,2,2-trifluoroacetate], 8.16; that for `N#Cc1ccc(Cn2c(N3CC[C@H](F)[C@H](N)C3)nc3ccc(C#N)cc32)nc1` [Example 68, 2-((3R,4S)-3-amino-4-fluoropiperidin-1-yl)-1-((5-cyanopyridin-2-yl)methyl)-1H-benzo[d]imidazole-6-carbonitrile], 8.74.
With `N[C@@H]1CCCN(c2nc3ccccc3n2Cc2ccc(F)cc2F)C1` [Example 389, (R)-1-(1-(2,4-difluorobenzyl)-1H-benzo[d]imidazol-2-yl)piperidin-3-amine] the figure was 5.34.
With `N#Cc1ccc(Cn2c(N3C[C@H]4C[C@@]4(CN)C3)nc3ccccc32)nc1` [Example 74, 6-((2-((1R,5S)-1-(aminomethyl)-3-azabicyclo[3.1.0]hexan-3-yl)-1H-benzo[d]imidazol-1-yl)methyl)nicotinonitrile hydrochloride], the pIC50 was 6.42.
For `CN[C@H]1CCCN(c2nc3ccc(C(F)(F)F)cc3n2Cc2ccc(C#N)cn2)C1` [Example 139, 6-((2-((3S)-3-(methylamino)-1-piperidinyl)-6-(trifluoromethyl)-1H-benzimidazol-1-yl)methyl)-3-pyridinecarbonitrile], the pIC50 is 8.72.
Regarding `N#Cc1ccc(Cn2c(N3CCC[C@@H](N)C3)nc3ccccc32)cc1` [Example 162, (R)-4-((2-(3-aminopiperidin-1-yl)-1H-benzo[d]imidazol-1-yl)methyl)benzonitrile], the pIC50 is 6.59.
In the case of `CC[C@@H](c1ccc(C#N)cn1)n1c(N2CCC[C@H](N)C2)nc2ccccc21` [Example 300, 6-((S)-1-(2-((S)-3-aminopiperidin-1-yl)-1H-benzo[d]imidazol-1-yl)propyl)nicotinonitrile hydrochloride], the pIC50 was 6.39.
`N#Cc1ccc(Cn2c(N3CC[C@@H](O)[C@H](N)C3)nc3cc(F)ccc32)nc1` [Example 208, 6-((2-((3R,4R)-3-amino-4-hydroxypiperidin-1-yl)-5-fluoro-1H-benzo[d]imidazol-1-yl)methyl)nicotinonitrile]: the pIC50 is 7.32.
Turning to `Cc1nnc(Cn2c(N3CC[C@@H](F)[C@H](N)C3)nc3cc(F)cnc32)s1` [Example 590, (3R,4R)-4-fluoro-1-(6-fluoro-3-((5-methyl-1,3,4-thiadiazol-2-yl)methyl)-3H-imidazo[4,5-b]pyridin-2-yl)piperidin-3-amine], the pIC50 was 5.84.
The result for `CN[C@H]1CCCN(c2nc3ccccc3n2[C@H](C)c2ccc(C#N)cn2)C1` [Example 255, 6-((1R)-1-(2-((3S)-3-(methylamino)-1-piperidinyl)-1H-benzimidazol-1-yl)ethyl)-3-pyridinecarbonitrile] reads 6.99; that for `C[C@@H](c1ccc(Cl)cn1)n1c(N2CC[C@@H](F)[C@H](N)C2)nc2cc(F)c(F)cc21` [Example 218, (3R,4R)-1-(1-((S)-1-(5-chloropyridin-2-yl)ethyl)-5,6-difluoro-1H-benzo[d]imidazol-2-yl)-4-fluoropiperidin-3-amine hydrochloride], 9.09.
Regarding `N[C@@H]1CN(c2nc3ccccc3n2Cc2ccc(Cl)cn2)CCC1(F)F` [Example 85, (R)-1-(1-((5-chloropyridin-2-yl)methyl)-1H-benzo[d]imidazol-2-yl)-4,4-difluoropiperidin-3-amine hydrochloride], the pIC50 was 8.12.
The result for `NC(=O)c1cnc(Cn2c(N3CC[C@@H](F)[C@H](N)C3)nc3cc(F)c(F)cc32)cn1` [Example 133, 5-((2-((3R,4R)-3-amino-4-fluoro-1-piperidinyl)-5,6-difluoro-1H-benzimidazol-1-yl)methyl)-2-pyrazinecarboxamide] reads 8.16; that for `N[C@@H]1CN(c2nc3cc(F)c(F)cc3n2Cc2cc(Cl)ccc2Cl)CC[C@H]1F` [Example 343, (3R,4R)-1-(1-(2,5-dichlorobenzyl)-5,6-difluoro-1H-benzimidazol-2-yl)-4-fluoro-3-piperidinamine], 6.09.
Turning to `N#Cc1ccc(Cn2c(N3CCC(F)(F)[C@H](N)C3)nc3ccc(C#N)cc32)cc1` [Example 160, 2-((3R)-3-amino-4,4-difluoro-1-piperidinyl)-1-(4-cyanobenzyl)-1H-benzimidazole-6-carbonitrile], the pIC50 was 7.85.
Turning to `N[C@@H]1CN(c2nc3ccc(Cl)cc3n2CC(=O)N2CCC2)CC[C@H]1F` [Example 285, 2-(2-((3R,4R)-3-amino-4-fluoro-1-piperidinyl)-6-chloro-1H-benzimidazol-1-yl)-1-(1-azetidinyl)ethanone], the pIC50 is 6.73.
`N[C@@H]1CN(c2nc3c(F)cc(F)cc3n2Cc2ccc(Cl)cn2)CCC1(F)F` [Example 230, (R)-1-(1-((5-chloropyridin-2-yl)methyl)-4,6-difluoro-1H-benzo[d]imidazol-2-yl)-4,4-difluoropiperidin-3-amine hydrochloride]: the pIC50 was 9.31.
The result for `CC(c1ccc(C#N)cc1)n1c(N2CCC[C@H](N)C2)nc2ccccc21` (mixture of isomers) [Example 399, 4-(1-(2-((S)-3-aminopiperidin-1-yl)-1H-benzo[d]imidazol-1-yl)ethyl)benzonitrile] reads 7.69; that for `N[C@@H]1CN(c2nc3cc(F)c(F)cc3n2CC(=O)N2CC(F)(F)C2)CC[C@H]1F` [Example 428, 2-(2-((3R,4R)-3-amino-4-fluoropiperidin-1-yl)-5,6-difluoro-1H-benzo[d]imidazol-1-yl)-1-(3,3-difluoroazetidin-1-yl)ethanone], 7.74; that for `N#Cc1ccc(Cn2c(N3CC[C@H](F)[C@H](N)C3)nc3cc(F)cc(F)c32)nc1` [Example 66, 6-((2-((3R,4S)-3-amino-4-fluoropiperidin-1-yl)-5,7-difluoro-1H-benzo[d]imidazol-1-yl)methyl)nicotinonitrile], 6.63.
Take `N[C@@H]1CN(c2nc3cc(F)c(F)cc3n2Cc2ccc(F)cc2Cl)CC[C@H]1F` [Example 355, (3R,4R)-1-(1-(2-chloro-4-fluorobenzyl)-5,6-difluoro-1H-benzimidazol-2-yl)-4-fluoro-3-piperidinamine]: the pIC50 was 7.43.
